From US10314877B2, “Method for lymph drainage” (ABOCA S.P.A. SOCIETÀ AGRICOLA, priority 2015, dated 2019)

Assays:
[1] = test system: Human Dermal Lymphatic Endothelial Cells (HDLEC); assay: Vascular (endothelial) permeability test, FITC-dextran passage through lymphatic endothelial monolayer; assay type: cell-based; conditions: IL-1β 10 ng/ml 1 h, no extract
Method: In box A of FIG. 1 what is shown is the model in which lymphatic or hematic endothelial cells are measured in culture on a semi-permeable membrane, with presence of culture medium above and below said membrane, so as to allow the passage of components present in the medium when the cells are not strictly linked to one another, and FITCH-dextran molecules are inserted in the culture medium above the cells.
Quantification by means of fluorescence of the FITC-dextran complex provides a measure of the permeability of the endothelium. […]
The authors have therefore used a model, shown schematically in FIG. 1, to study the effects of various plant extracts on endothelia of blood or lymphatic vessels. […] The degree of permeability has been determined by way of experiment by measuring the amount of fluorescent probe that crosses the endothelial barrier separating the two compartments representing, respectively, the lumen of the vessel (above the semi-permeable membrane) and the interstice (below the semi-permeable membrane). […]
The samples were assessed in 2-3 concentrations vs. vehicle alone on the cell cultures, untreated and treated with IL1beta (10 ng/ml), to understand if they have any effect in themselves on undamaged cells and if the tested substances are able to reverse the rise in permeability induced by IL1beta. […]

[2] = test system: occludin and ZO-1 in confluent HDLEC and HDBEC cells; assay: Immunofluorescence analysis of tight junction proteins occludin and ZO-1; assay type: cell-based, human; conditions: IL-1beta alone 10 ng/ml, 1 hour
Method: FIG. 11 reports the data of immunofluorescence analyses of occludin (upper boxes) and of the protein ZO-1 (lower boxes) in confluent HDLEC (A) and HDBEC (B) cells treated with the following stimuli: no stimulus, IL-1beta alone (10 ng/ml, 1 hour), mixture of the invention alone (10 micrograms/ml 18 hours); mixture of the invention (18 hours)+IL-1beta (1 hour). The confocal images were taken with 60× enlargement, the scale bar=10 micrometers.
Occludin and ZO-1 were assessed as markers representative of tight endothelial junctions. The confluent cells express these markers, whereas they are reduced following treatment with IL-1beta.
The proteins of occluding tight junction and zona occludens 1 (ZO-1) expressed on the cell surface were visualised using confocal analysis. The cells were plated 5×10^4 on 1 cm circular glass slides. After 24 hours the cells were washed and treated with the mentioned stimulants. The immunofluorescence analysis was carried out as reported in the materials and methods of Monti et al, Pharmacol Res 2013; 76:171-81.

IL-1β: interleukin beta, inflammatory agent used to raise endothelial permeability
permeability of endothelial cells treated with IL-1β alone (healthy cells = 100%) [1]: approximately 160% | tight junction markers occludin and ZO-1 [2]: reduced
